The source of these data is US12612386B2, “Heteroaryl-triazole compounds as pesticides” (Bayer Aktiengesellschaft, priority 2020, dated 2026).

As a reminder, the mortality is the percentage killed.

Common to all, as to assay type: in vivo
Assay [1] relates to cattle tick larvae (Rhipicephalus microplus), strain Parkhurst, resistant against synthetic pyrethroids. Kind of assay: Rhipicephalus (Boophilus) microplus in-vitro contact test, larval cattle tick. To be noted: 5 μg/cm^2 (=500 g/ha), after 48 hours. The procedure, abridged:
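Compound in acetone coated onto the inner walls of glass tubes (900 ppm giving 5 μg/cm^2), solvent evaporated, then 20–50 larvae added and held at 27 °C, 85% RH. After 48 h, efficacy scored from negative geotactic behaviour as % dead or moribund larvae.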

Assay [2] concerns larvae of the banded cucumber beetle (Diabrotica balteata). Kind of assay: Diabrotica balteata spray test. To be noted: 168 h, 100 g/ha (=32 μg/well), after 7 days, read-out: efficacy (seedling growth). The procedure, abridged: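 Germinated wheat seeds on agar (5 per well) were sprayed with compound formulated in acetone/DMF and diluted in water with 1000 ppm emulsifier. Each unit was then infested with 10–20 larvae. Efficacy % was scored after 7 days as seedling growth relative to an untreated, uninfested control (100% = normal growth).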

The subject of assay [3] is green peach aphid (Myzus persicae). As to the kind of experiment: Myzus persicae spray test (MYZUPE). To be noted: 120 h, 100 g/ha, after 5 days. The procedure, abridged: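 Chinese cabbage leaf disks infested with all instars of Myzus persicae were sprayed with compound formulated in acetone/dimethylformamide and diluted in water with 1000 ppm alkylarylpolyglycol ether emulsifier. Percent mortality was scored after 5 days, 100% meaning all aphids killed.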

Assay [4] relates to brown planthopper (Nilaparvata lugens). Kind of assay: Nilaparvata lugens spray test. The following applies: 96 h. The procedure, abridged: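 Rice plants (Oryza sativa) sprayed with compound formulated in acetone/DMF with alkylarylpolyglycol ether emulsifier (1000 ppm in diluting water), then infested with planthoppers. Mortality (%) scored after 4 days; 100% = all insects killed, 0% = none killed.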

In assay [5] the test system is fall armyworm larvae (Spodoptera frugiperda). Kind of assay: whole plant or invertebrate. The following applies: 168 h. The procedure, abridged:
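Maize leaf sections sprayed with compound in acetone/DMF with alkylarylpolyglycol ether emulsifier diluted in water, then infested with fall armyworm larvae once dry. Mortality (%) scored after 7 days; 100% = all caterpillars killed.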

The test system of assay [6] is adult mosquitoes Aedes aegypti strain MONHEIM. As to the kind of experiment: Aedes aegypti test (AEDSAE surface treatment & contact assay). To be noted: 24 hours after contact, read-out: efficacy (mortality); for mortality at 4 mg/m2: surface concentration 4 mg/m^2, 30 min exposure; for mortality at 20 mg/m2: surface concentration 20 mg/m^2, 30 min exposure. The method, then: Aedes aegypti Test (AEDSAE Surface Treatment & Contact Assay)
(§1) Solvent: Aceton+2000 ppm rapeseed oil methyl ester (RME)
This solution is pipetted onto a glazed tile and after evaporation of the acetone, adult mosquitoes of the species Aedes aegypti strain MONHEIM are placed onto the dried surface. The exposure time is 30 minutes. Mortality in percent (%) is determined 24 hours after contact of the insects to the treated surface. 100% mortality means that all tested insects are dead, whereas 0% means that no insect died.

For assay [7], the system named is adult flies Musca domestica strain WHO-N. As to the kind of experiment: Musca domestica test (MUSCDO surface treatment & contact assay). The following applies: 24 hours after contact, read-out: efficacy (mortality); for mortality at 20 mg/m2: surface concentration 20 mg/m^2, 30 min exposure; for mortality at 4 mg/m2: surface concentration 4 mg/m^2, 30 min exposure. The method, then:
Musca domestica Test (MUSCDO Surface Treatment & Contact Assay)
as §1
This solution is pipetted onto a glazed tile and after evaporation of the acetone, adult flies of the species Musca domestica strain WHO-N are placed onto the dried surface. The exposure time is 30 minutes. Mortality in percent (%) is determined 24 hours after contact of the insects to the treated surface. 100% mortality means that all tested insects are dead, whereas 0% means that no insect died.

The test system of assay [8] is adult mosquitoes Culex quinquefasciatus strain P00. As to the kind of experiment: Culex quinquefasciatus test (CULXFA surface treatment & contact assay). To be noted: 24 hours after contact, read-out: efficacy (mortality); for mortality at 20 mg/m2: surface concentration 20 mg/m^2, 30 min exposure; for mortality at 4 mg/m2: surface concentration 4 mg/m^2, 30 min exposure. Here is the method:
Culex quinquefasciatus Test (CULXFA Surface Treatment & Contact Assay)
as §1
This solution is pipetted onto a glazed tile and after evaporation of the acetone, adult mosquitoes of the species Culex quinquefasciatus strain P00 are placed onto the dried surface. The exposure time is 30 minutes. Mortality in percent (%) is determined 24 hours after contact of the insects to the treated surface. 100% mortality means that all tested insects are dead, whereas 0% means that no insect died.

Assay [9] deals with adult cat fleas (Ctenocephalides felis). As to the kind of experiment: Ctenocephalides felis in-vitro contact test, adult cat flea. To be noted: 5 μg/cm^2 (=500 g/ha), after 48 hours. Here is the method:
Ctenocephalides felis—In-Vitro Contact Tests Adult Cat Flea
9 mg compound is solved in 1 mL acetone and diluted with acetone to the desired concentration. 250 μL of the test solution is filled in 25 mL glass test tubes and homogeneously distributed on the inner walls by rotation and tilting on a shaking device (2 h at 30 rpm). With a compound concentration of 900 ppm, an inner surface of 44.7 cm^2 and a homogeneous distribution, a dose of 5 μg/cm^2 is achieved.
After the solvent has evaporated, each test tube is filled with 5-10 adult cat fleas (Ctenocephalides felis), closed with a perforated lid and incubated in a lying position at room temperature and relative humidity. After 48 hours efficacy is determined. The fleas are patted on the ground of the tubes and are incubated on a heating plate at 45-50° C. for at most 5 minutes. Immotile or uncoordinated moving fleas, which are not able to escape the heat by climbing upwards, are marked as dead or moribund.
An efficacy of 100% means all fleas are dead or moribund; 0% means no fleas are dead or moribund.

Assay [10] has as its system adult brown dog ticks (Rhipicephalus sanguineus). Kind of assay: Rhipicephalus sanguineus in-vitro contact test, adult brown dog ticks. To be noted: 48 h, read-out: efficacy (ticks dead or moribund). The procedure, abridged: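 Acetone solution rolled onto tube walls, 2 h at 30 rpm; 900 ppm → 5 μg/cm^2. Solvent evaporated, 5-10 adults/tube, perforated lid, lying, RT. 48 h: heat plate 45-50° C ≤5 min; immotile/uncoordinated = dead/moribund. 100% = all dead/moribund.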

Assay [11] concerns larvae of the southern green stink bug (Nezara viridula). As to the kind of experiment: whole plant or invertebrate. The following applies: 96 h. The procedure, abridged: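 Compound in acetone/DMF was diluted in water with 1000 ppm alkylarylpolyglycol ether emulsifier. Barley plants were sprayed with it, then infested with Nezara viridula larvae. Mortality % was scored after 4 days (100% = all killed).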

Assay [12] has as its system adult animals Blattella germanica strain PAULINIA
As to the kind of experiment: Blattella germanica test (BLTTGE surface treatment & contact assay). The following applies: 24 hours after contact, read-out: efficacy (mortality); for mortality at 4 mg/m2: surface concentration 4 mg/m^2, 30 min exposure; for mortality at 20 mg/m2: surface concentration 20 mg/m^2, 30 min exposure. Here is the method: Blattella germanica Test (BLTTGE Surface Treatment & Contact Assay)
as §1
In order to produce a sufficient, active ingredient containing solution it is necessary to solve the test compound in the solvent-mix (acetone at 2 mg/ml/RME 2000 ppm). This solution is pipetted onto a glazed tile and after evaporation of the acetone, adult animals of the species Blattella germanica strain PAULINIA are placed onto the dried surface. The exposure time is 30 minutes.
Mortality in percent (%) is determined 24 hours after contact of the insects to the treated surface. 100% mortality means that all tested insects are dead, whereas 0% means that no insect died.

As for `CC(NC(=O)c1cc(OC(F)(F)F)cc(C2CC2)c1)c1ncnn1-c1cc(C#N)ncn1` (stereo not drawn) [I-8, N-{1-[1-(6-cyanopyrimidin-4-yl)-1H-1,2,4-triazol-5-yl]ethyl}-3-cyclopropyl-5-(trifluoromethoxy)benzamide], the “efficacy (larvae dead or moribund)” value in [1] is reported as 100%. In assay [2], the pest or weed control at 32 µg/disc, 100 g/ha turned out to be 100%. The values for the mortality at 100 g/ha in assay [3] and in [5] were 90% and 100%, respectively. Further, the mortality at 500 g/ha in assay [4] came to 100%. Besides, the mortality at 4 mg/m2 in assay [6] fell in the range of 80 to 100%. Besides, the mortality at 20 mg/m2 in [6] and in [7] was 80 to 100% in each case.
With `C[C@H](NC(=O)c1cc(OC(F)(F)F)cc(C2CC2)c1)c1ncnn1-c1cc(C#N)ncn1` [I-10], the “efficacy (larvae dead or moribund)” value in assay [1] is given as 100%. The pest or weed control at 32 µg/disc, 100 g/ha in [2] is 100%. The compound further registered a mortality at 100 g/ha in assay [5] of 100%. In assay [6], the mortality at 4 mg/m2 was in the range of 80 to 100% and the mortality at 20 mg/m2 was in the range of 80 to 100%. Also, in assay [7], the mortality at 20 mg/m2 was 80 to 100%.
For the compound `C[C@H](NC(=O)c1cc(OC(F)(F)F)cc(S(=O)(=O)C(F)F)c1)c1ncnn1-c1cc(C#N)ncn1` [I-20], the pest or weed control at 32 µg/disc, 100 g/ha in assay [2] was 100%. Also, the mortality at 100 g/ha in assay [3] and in [5] was 100% in each case. The mortality at 4 mg/m2 in assay [6] was 80 to 100%. Besides, the mortality at 20 mg/m2 in [6], in assay [8] and in assay [7] was 80 to 100% in each case.
For the compound `C[C@H](NC(=O)c1cc(Br)cc(OC(F)(F)F)c1)c1ncnn1-c1cc(C(N)=O)ncn1` [I-21], the “efficacy (larvae dead or moribund)” value in assay [1] is reported as 100%. The “efficacy (fleas dead or moribund)” value in assay [9] was determined as 100%. Further, in [10], the pest or weed control at 5 µg/cm2, 500 g/ha was 100%. For the same compound, the pest or weed control at 32 µg/disc, 100 g/ha in assay [2] was 100%. In addition, the mortality at 100 g/ha in [3] turned out to be 90%; in [11], 100%; in [5] it was 100%. Further, the mortality at 500 g/ha in assay [11] was found to be 100%. The mortality at 4 mg/m2 in assay [6], in [8], in assay [7] and in assay [12] was 80 to 100% in each case. Besides, the mortality at 20 mg/m2 in [6], in [7] and in [12] was 80 to 100% in each case.
Turning to `C[C@H](NC(=O)c1cc(OC(F)(F)F)cc(C2(C#N)CC2)c1)c1nc(C2CC2)nn1-c1cc(C(N)=O)ncn1` [I-33], the “efficacy (larvae dead or moribund)” value in [1] turned out to be 100%. Also, the “efficacy (fleas dead or moribund)” value in [9] is 100%. Besides, the pest or weed control at 32 µg/disc, 100 g/ha in assay [2] amounted to 100%. In assay [4], this compound had a mortality at 500 g/ha of 100%. Also, the mortality at 100 g/ha in assay [5] worked out at 100%. Besides, the mortality at 4 mg/m2 in [6], in [8] and in [7] was 80 to 100% in each case. Moreover, the mortality at 20 mg/m2 in [6], in assay [8] and in assay [7] was 80 to 100% throughout.
Consider `C[C@H](NC(=O)c1cc(OC(F)(F)F)cc(OC(F)(F)F)c1)c1nc(C2CC2)nn1-c1cc(C(N)=O)ncn1` [I-36], for which the “efficacy (larvae dead or moribund)” value in [1] was 100%. Besides, in assay [10], the pest or weed control at 5 µg/cm2, 500 g/ha turned out to be 80%. Moreover, the pest or weed control at 32 µg/disc, 100 g/ha in assay [2] is 100%. Moreover, the mortality at 100 g/ha in assay [5] is 100%. The mortality at 20 mg/m2 in assay [6] fell in the range of 80 to 100%. In assay [7], the mortality at 4 mg/m2 was in the range of 80 to 100% and the mortality at 20 mg/m2 fell in the range of 80 to 100%.
Consider `C[C@H](NC(=O)c1cc(Cl)cc(OC(F)(F)F)c1)c1ncnn1-c1cc(C(N)=O)ncn1` [I-49], for which the “efficacy (larvae dead or moribund)” value in [1] was determined as 100%. Further, the “efficacy (fleas dead or moribund)” value in assay [9] came out at 100%. The pest or weed control at 5 µg/cm2, 500 g/ha in assay [10] was determined as 80%. Also, the pest or weed control at 32 µg/disc, 100 g/ha in assay [2] is 100%. Further, the mortality at 100 g/ha in [3], in [11] and in [5] was 100% in each case. Moreover, the mortality at 500 g/ha in assay [11] and in assay [4] was 100% throughout. Moreover, the mortality at 4 mg/m2 in assay [6], in [8], in assay [7] and in [12] was 80 to 100% in each case. Moreover, the mortality at 20 mg/m2 in assay [6], in [8], in [7] and in [12] was 80 to 100% in each case.
Regarding `CNC(=O)c1cc(-n2ncnc2[C@H](C)NC(=O)c2cc(OC(F)(F)F)cc(S(=O)(=O)C(F)(F)F)c2)ncn1` [I-90], the pest or weed control at 32 µg/disc, 100 g/ha in assay [2] is 100%. Further, the mortality at 100 g/ha in [3] and in assay [5] was 100% throughout. Moreover, the mortality at 500 g/ha in assay [11] was 100%; in [4], 90%. Moreover, the mortality at 4 mg/m2 in [6], in [8] and in assay [7] was 80 to 100% throughout. The mortality at 20 mg/m2 in [6], in assay [8], in [7] and in [12] was 80 to 100% each time.
As to `C[C@H](NC(=O)c1cc(OC(F)F)cc(OC(F)F)c1)c1ncnn1-c1cc(C(N)=O)ncn1` [I-93], the pest or weed control at 32 µg/disc, 100 g/ha in assay [2] stood at 100%. Also, the mortality at 100 g/ha in [3] and in [5] was 100% throughout. Further, the mortality at 500 g/ha in assay [11] and in assay [4] was 100% each time. The mortality at 4 mg/m2 in [6], in assay [8], in assay [7] and in [12] was 80 to 100% throughout. Also, the mortality at 20 mg/m2 in assay [6], in [8], in assay [7] and in [12] was 80 to 100% throughout.
